Results published in patent US20170240535A1, “HDAC1/2 INHIBITORS FOR THE TREATMENT OF NEURODEGENERATIVE AND/OR COGNITIVE DISORDERS” (Regenacy Pharmaceuticals, LLC, priority 2016, published 2017).

Key:
[1] = target: T1, HDAC1 (Homo sapiens, UniProt Q13547); experiment: HDAC enzyme assay, HDAC1; format: biochemical; conditions: enzyme and compound incubated 24 hours at room temperature
T1 construct: purchased BPS Biosciences
Description: (§1) Compounds for testing were diluted in DMSO to 50 fold the final concentration and a ten point three fold dilution series was made. The compounds were diluted in assay buffer (50 mM HEPES, pH 7.4, 100 mM KCl, 0.001% Tween-20, 0.05% BSA, 20 μM TCEP) to 6 fold their final concentration. The HDAC enzymes (purchased from BPS Biosciences) were diluted to 1.5 fold their final concentration in assay buffer. The tripeptide substrate and trypsin at 0.05 μM final concentration were diluted in assay buffer at 6 fold their final concentration. The final enzyme concentrations used in these assays were 3.3 ng/ml (HDAC1), 0.2 ng/ml (HDAC2) and 0.08 ng/ml (HDAC3). The final substrate concentrations used were 16 μM (HDAC1), 10 μM (HDAC2) and 17 μM (HDAC3). Five μl of compound and 20 μl of enzyme were added to wells of a black, opaque 384 well plate in duplicate. Enzyme and compound were incubated together at room temperature for 24 hours. Five μl of substrate was added to each well, the plate was shaken for 60 seconds and placed into a Victor 2 microtiter plate reader. The development of fluorescence was monitored for 60 min and the linear rate of the reaction was calculated. The IC50 was determined using Graph Pad Prism by a four parameter curve fit.

[2] = target: T2, HDAC2 (Homo sapiens, UniProt Q92769); experiment: HDAC enzyme assay, HDAC2; format: biochemical; conditions: enzyme and compound incubated 24 hours at room temperature
T2 construct: purchased BPS Biosciences
T2 sequence (Q92769 whole entry): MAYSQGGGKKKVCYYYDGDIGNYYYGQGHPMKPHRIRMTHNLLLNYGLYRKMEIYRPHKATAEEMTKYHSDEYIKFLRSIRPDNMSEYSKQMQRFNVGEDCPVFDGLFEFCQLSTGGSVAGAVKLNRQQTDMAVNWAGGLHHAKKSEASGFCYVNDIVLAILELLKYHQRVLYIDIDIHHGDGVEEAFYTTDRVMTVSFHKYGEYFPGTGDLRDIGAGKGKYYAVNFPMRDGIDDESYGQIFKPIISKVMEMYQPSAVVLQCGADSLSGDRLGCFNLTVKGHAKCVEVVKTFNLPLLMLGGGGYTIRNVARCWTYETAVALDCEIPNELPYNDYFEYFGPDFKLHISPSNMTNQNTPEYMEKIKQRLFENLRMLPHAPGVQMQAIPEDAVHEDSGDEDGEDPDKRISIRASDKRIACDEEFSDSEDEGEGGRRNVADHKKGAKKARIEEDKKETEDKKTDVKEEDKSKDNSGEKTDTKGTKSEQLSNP
Description: as §1

[3] = target: T3, HDAC3 (Homo sapiens, UniProt O15379); experiment: HDAC enzyme assay, HDAC3; format: biochemical; conditions: enzyme and compound incubated 24 hours at room temperature
T3 construct: purchased BPS Biosciences
T3 sequence (O15379 whole entry): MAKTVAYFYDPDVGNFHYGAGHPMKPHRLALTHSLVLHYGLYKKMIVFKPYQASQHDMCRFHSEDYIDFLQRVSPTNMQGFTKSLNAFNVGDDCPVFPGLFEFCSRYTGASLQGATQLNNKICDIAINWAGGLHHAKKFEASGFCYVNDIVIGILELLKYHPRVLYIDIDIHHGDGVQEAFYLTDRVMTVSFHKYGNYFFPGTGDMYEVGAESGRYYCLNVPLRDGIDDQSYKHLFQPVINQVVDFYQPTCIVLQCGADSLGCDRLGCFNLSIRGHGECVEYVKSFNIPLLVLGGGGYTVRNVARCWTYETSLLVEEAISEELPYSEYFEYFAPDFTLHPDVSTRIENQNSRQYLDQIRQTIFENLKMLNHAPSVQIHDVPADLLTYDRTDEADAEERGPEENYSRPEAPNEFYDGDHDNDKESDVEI
T3 sequence (Q9Y618 395-489 partner limits assumed): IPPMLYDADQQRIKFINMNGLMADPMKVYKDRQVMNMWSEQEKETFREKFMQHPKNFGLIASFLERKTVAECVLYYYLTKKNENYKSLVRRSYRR
Description: as §1

[4] = Pharmacokinetics in plasma and brain after IV administration; format: in vivo; conditions: IV 1 mg/kg, male C57BL/6 mice; for Kp / Cmax / Tmax / half-life / AUC(0-inf) / AUC(0-t) / MRT inf / clearance / Vd: mouse; for Kp: brain/plasma, read-out: AUCbrain/AUCplasma; for Vd: read-out: Vss
Description: Male C57Bl/6 mice were fasted overnight. Compounds of the invention were dissolved in dimethyl acetamide at 10 times the final concentration, then Solutol HS 15 (BASF) was added to a final concentration of 10%. Finally 80% saline was added and vortexed to achieve a clear solution. Fifteen animals were injected via the tail vein with 1 mg/kg compound. Blood was collected via retro orbital puncture into K2EDTA tubes at 5 minutes, 15 minutes, 30 minutes, 1 hour, 2 hours, 4 hours, 8 hours and 24 hours after dosing. The blood was centrifuged at 2000 g for 5 minutes at 4° C. to obtain plasma. The plasma was extracted with acetonitrile and the level of compound was analyzed by LC/MS/MS. The level of compound in plasma was calculated from a standard curve in mouse plasma. For brain levels, animals were sacrificed at 5 minutes, 15 minutes, 1 hour, 4 hours and 24 hours. Brains were removed and homogenized in acetonitrile and extracted. The level of compound in brain was calculated from a standard curve in mouse brain tissue. The IV clearance and area under the curve were calculated using WinNonLin software. The ratio of area under the curve for plasma and brain samples was calculated to produce the brain/plasma ratio.

[5] = Comparison of brain penetrance between quinolines and isoquinolines (IP dosing); format: in vivo; conditions: IP 5 mg/kg, C57Bl/6 mice; for Kp / AUC: mouse; for Kp: brain/plasma, read-out: ratio (AUC brain / AUC plasma); for AUC: plasma
Description: Comparator B (see Table 7) and Compound 2 were dosed in C57Bl/6 mice at 5 mg/kg in 10% DMAC/10% Solutol HS15/80% saline. Comparator A (see Table 7) was dosed at 5 mg/kg in 5% dextrose/water. All compounds were dosed IP. Mice were sacrificed at 5, 15, 30 minutes and 1, 2, 4, 8 and 24 hours after dosing. Plasma concentration of compound was determined at all time points by LC/MS/MS. Brain concentration was determined at 1, 4, 8 and 24 hours after dosing. The AUC was calculated using WinNonLin software. The results are shown in Table 7, where plasma AUC is expressed as hr*ng/mL and brain AUC is expressed as hr*ng/g.

T1 sequence (Q13547 whole entry): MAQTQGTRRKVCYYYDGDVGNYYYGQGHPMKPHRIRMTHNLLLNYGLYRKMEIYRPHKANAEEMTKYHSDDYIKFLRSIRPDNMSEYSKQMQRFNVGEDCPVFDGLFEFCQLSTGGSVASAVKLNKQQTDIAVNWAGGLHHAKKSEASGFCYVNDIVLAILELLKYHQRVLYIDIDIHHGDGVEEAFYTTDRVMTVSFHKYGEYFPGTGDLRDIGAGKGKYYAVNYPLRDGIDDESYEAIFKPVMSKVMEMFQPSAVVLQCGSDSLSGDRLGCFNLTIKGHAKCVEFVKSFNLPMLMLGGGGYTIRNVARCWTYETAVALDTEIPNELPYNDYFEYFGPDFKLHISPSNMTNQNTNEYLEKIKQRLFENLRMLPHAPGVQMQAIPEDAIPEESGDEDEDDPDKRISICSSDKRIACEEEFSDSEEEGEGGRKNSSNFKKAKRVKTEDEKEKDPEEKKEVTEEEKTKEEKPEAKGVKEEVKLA

Work on Nc1ccc(-c2cccs2)cc1NC(=O)c1cc2ccc(N3CCNCC3)cc2cn1 [Compound 2] yielded an IC50 [1] of 3 nM, an IC50 [2] of 10 nM and an IC50 [3] of 43 nM. The “brain penetrance (from brain/plasma AUC ratios)” value [4] was “highly brain penetrant”, the AUCINF ([4]; brain) was 13461 ng·h/g and the AUClast ([4]; brain) was 11474 ng·h/g. It also gave a Kp [4] of 8.33, a Cmax ([4]; brain) of 783 ng/g and a Tmax ([4]; brain) of 1 h. The half-life ([4]; brain) was 9.3 h, the AUC(0-inf) ([4]; plasma, PK cassette) was 1620 ng·h/mL and the AUC(0-t) ([4]; plasma, PK cassette) was 1560 ng·h/mL. It also gave an MRT inf ([4]; plasma, PK cassette) of 6.97 h, a clearance ([4]; plasma, PK cassette) of 10.3 mL/min/kg and a half-life ([4]; plasma, PK cassette) of 5.29 h. The Vd ([4]; plasma, PK cassette) was 4.31 L/kg, the AUC brain [5] was 23283 ng·h/g and the Kp [5] was 7.2. It also gave an AUC [5] of 3230 ng·h/mL.
With Nc1ccc(-c2cccs2)cc1NC(=O)c1cc2ccc(NC(=O)C3CCCN3)cc2cn1 (centres unmarked) [Compound 6] the IC50 [1] was 5 nM, the IC50 [2] was 19 nM and the IC50 [3] was 121 nM.
For Nc1ccc(-c2cccs2)cc1NC(=O)c1ccc2nc(N3CCNCC3)ccc2c1 [Comparator A], the AUC brain [5] was 2092 ng·h/g, the Kp [5] was 0.16 and the AUC [5] was 12900 ng·h/mL.
For Nc1ccc(-c2ccc(F)cc2)cc1NC(=O)c1cc2ccc(N3CCNCC3)cc2cn1 [Compound 9], the “brain penetrance (from brain/plasma AUC ratios)” value [4] was “highly brain penetrant”, the AUCINF ([4]; brain) was 9607 ng·h/g and the AUClast ([4]; brain) was 9444 ng·h/g. It also gave a Kp [4] of 10.3, a Cmax ([4]; brain) of 1000 ng/g and a Tmax ([4]; brain) of 1 h. For the same compound, the half-life ([4]; brain) was 4.4 h.
With Nc1ccc(-c2cccs2)cc1NC(=O)c1cnc2cc(N3CCNCC3)ccc2c1 [Comparator B] the AUC brain [5] was 655 ng·h/g, the Kp [5] was 0.06 and the AUC [5] was 10800 ng·h/mL.
CN(C)CCNc1ccc2cc(C(=O)Nc3cc(-c4cccs4)ccc3N)ncc2c1 [Compound 5] showed an IC50 [1] of 2 nM, an IC50 [2] of 6 nM and an IC50 [3] of 19 nM.
Compound Nc1ccc(-c2ccccc2)cc1NC(=O)c1cc2ccc(N3CCNCC3=O)cc2cn1 [Compound 4] has an IC50 [1] of 6 nM, an IC50 [2] of 8 nM and an IC50 [3] of 182 nM. The AUCINF ([4]; brain) was 390 ng·h/g, the AUClast ([4]; brain) was 319 ng·h/g and the Kp [4] was 0.1. The Cmax ([4]; brain) was 145 ng/g, the Tmax ([4]; brain) was 0.25 h and the half-life ([4]; brain) was 1.66 h. It also gave an AUC(0-inf) ([4]; plasma, PK cassette) of 3820 ng·h/mL, an AUC(0-t) ([4]; plasma, PK cassette) of 3470 ng·h/mL and an MRT inf ([4]; plasma, PK cassette) of 8.72 h. It also gave a clearance ([4]; plasma, PK cassette) of 4.37 mL/min/kg, a half-life ([4]; plasma, PK cassette) of 7.71 h and a Vd ([4]; plasma, PK cassette) of 2.28 L/kg.
For Nc1ccc(-c2ccncc2)cc1NC(=O)c1cc2ccc(N3CCNCC3)cc2cn1 [Compound 3], the IC50 [1] was 7 nM, the IC50 [2] was 8 nM and the IC50 [3] was 74 nM. For the same compound, the AUCINF ([4]; brain) was 1439 ng·h/g, the AUClast ([4]; brain) was 1237 ng·h/g and the Kp [4] was 1.8. It also gave a Cmax ([4]; brain) of 126 ng/g, a Tmax ([4]; brain) of 0.25 h and a half-life ([4]; brain) of 8.63 h. For the same compound, the AUC(0-inf) ([4]; plasma, PK cassette) was 799 ng·h/mL, the AUC(0-t) ([4]; plasma, PK cassette) was 770 ng·h/mL and the MRT inf ([4]; plasma, PK cassette) was 5.45 h. For the same compound, the clearance ([4]; plasma, PK cassette) was 20.8 mL/min/kg, the half-life ([4]; plasma, PK cassette) was 5.68 h and the Vd ([4]; plasma, PK cassette) was 6.82 L/kg.
With CN1CCCC1C(=O)Nc1ccc2cc(C(=O)Nc3cc(-c4cccs4)ccc3N)ncc2c1 (centres unmarked) [Compound 7] the IC50 [1] was 3 nM, the IC50 [2] was 10 nM and the IC50 [3] was 66 nM.
